Data on 36 compounds can be found in patent US7141592B2, “Substituted oxadiazolidinediones” (Wyeth, priority 2003, dated 2006).

A word on the inhibition: it is the percentage by which the read-out fell short of the control.

For this experiment, the target named is T1, recombinant human plasminogen activator inhibitor-1 (PAI-1) (Homo sapiens, UniProt P05121).
T1 construct: purchased Molecular Innovations, Royal Oak, Mich
T1 sequence (P05121 24-402): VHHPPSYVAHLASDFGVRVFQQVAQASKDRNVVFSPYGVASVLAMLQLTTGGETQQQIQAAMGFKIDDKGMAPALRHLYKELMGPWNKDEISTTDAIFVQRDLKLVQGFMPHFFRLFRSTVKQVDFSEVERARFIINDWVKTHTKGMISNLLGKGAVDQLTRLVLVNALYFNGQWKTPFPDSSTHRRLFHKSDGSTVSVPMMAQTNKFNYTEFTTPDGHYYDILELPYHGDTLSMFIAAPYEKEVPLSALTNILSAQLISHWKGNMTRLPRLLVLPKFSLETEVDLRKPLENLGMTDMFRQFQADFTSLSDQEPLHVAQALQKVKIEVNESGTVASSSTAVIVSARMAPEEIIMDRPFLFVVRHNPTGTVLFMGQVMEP
Briefly: Primary screen for the PAI-1 inhibition (chromogenic tPA activity, Spectrozyme-tPA). The format is biochemical. The following applies: compound at 100 μM. Here is the method: Test compounds are dissolved in DMSO at a final concentration of 10 mM, then diluted 100× in physiologic buffer. The inhibitory assay is initiated by the addition of the substituted oxadiazolidinedione (1–100 μM final concentration, maximun DMSO concentration of 0.2%) in a pH 6.6 buffer containing 140 nM recombinant human plasminogen activator inhibitor-1 (PAI-1; Molecular Innovations, Royal Oak, Mich.). Following a 1 hour incubation at room temperature, 70 nM of recombinant human tissue plasminogen activator (tPA) is added, and the combination of the substituted oxadiazolidinedione, PAI-1 and tPA is incubated for an additional 30 minutes. Following the second incubation, Spectrozyme-tPA (American Diagnostica, Greenwich, Conn.), a chromogenic substrate for tPA, is added and absorbance read at 405 nm at 0 and 60 minutes. Relative PAI-1 inhibition is equal to the residual tPA activity in the presence of the test compound and PAI-1. Control treatments include the complete inhibition of tPA by PAI-1 at the molar ratio employed (2:1), and the absence of any effect of the substituted oxadiazolidinedione on tPA alone.
Regarding `C#CCn1cc(Cn2oc(=O)[nH]c2=O)c2cc(OCc3ccc4ccccc4c3)ccc21` [Compound 20, 2-{[5-(2-naphthylmethoxy)-1-(2-propynyl)-1H-indol-3-yl]methyl}-1,2,4-oxadiazolidine-3,5-dione], the inhibition at 100 µM stood at 84%.
On the same count and under the same terms, to `O=c1[nH]c(=O)n(Cc2cn(Cc3ccccc3)c3ccc(OCc4ccc(Cl)c(Cl)c4)cc23)o1` [Compound 19, 2-({1-benzyl-5-[(3,4-dichlorobenzyl)oxy]-1H-indol-3-yl}methyl)-1,2,4-oxadiazolidine-3,5-dione] belongs 79%.
As to “2-{4-[3-(4-isobutylphenoxy)prop-1-ynyl]benzyl}-1,2,4-oxadiazolidine-3,5-dione [Compound 64]”, the “% Inhibition @ 100 μM” value is 65%.
`O=c1[nH]c(=O)n(Cc2cccc(C#CCOc3cccc(Cl)c3)c2)o1` [Compound 69, 2-{3-[3-(3-chlorophenoxy)prop-1-ynyl]benzyl}-1,2,4-oxadiazolidine-3,5-dione]: the inhibition at 100 µM is 85%.
Take “2-{[4-(phenylethynyl)thien-2-yl]methyl}-1,2,4-oxadiazolidine-3,5-dione [Compound 58]”: the “% Inhibition @ 100 μM” value was 45%.
Turning to “2-({4′-[(3-bromobenzyl)oxy]-1,1′-biphenyl-3-yl}methyl)-1,2,4-oxadiazolidine-3,5-dione [Compound 52]”, the “% Inhibition @ 100 μM” value is 80%.
As for `O=c1[nH]c(=O)n(Cc2cc(OCc3ccccc3Br)cc(OCc3ccccc3Br)c2)o1` [Compound 75, 2-{3,5-bis[(2-bromobenzyl)oxy]benzyl}-1,2,4-oxadiazolidine-3,5-dione], the inhibition at 100 µM stood at 91%.
`C=CCn1cc(Cn2oc(=O)[nH]c2=O)c2cc(OCc3ccc4ccccc4c3)ccc21` [Compound 21, 2-{[1-allyl-5-(2-naphthylmethoxy)-1H-indol-3-yl]methyl}-1,2,4-oxadiazolidine-3,5-dione]: the inhibition at 100 µM was 98%.
In the case of `C=CCn1cc(Cn2oc(=O)[nH]c2=O)c2cc(OCc3ccc(C(F)(F)F)cc3)ccc21` [Compound 4, 2-[(1-allyl-5-{[4-(trifluoromethyl)benzyl]oxy}-1H-indol-3-yl)methyl]-1,2,4-oxadiazolidine-3,5-dione], the inhibition at 100 µM worked out at 96%.
Same read-out and setting: the figure for `C#CCn1cc(Cn2oc(=O)[nH]c2=O)c2cc(OCc3cccc(Br)c3)ccc21` [Compound 26, 2-{[5-[(3-bromobenzyl)oxy]-1-(2-propynyl)-1H-indol-3-yl]methyl}-1,2,4-oxadiazolidine-3,5-dione] is 100%; for `Cc1cccc(COc2cccc(-c3cccc(Cn4oc(=O)[nH]c4=O)c3)c2)c1` [Compound 46, 2-({3′-[(3-methylbenzyl)oxy]-1,1′-biphenyl-3-yl}methyl)-1,2,4-oxadiazolidine-3,5-dione] it is 80%; for `COc1cc(Cn2oc(=O)[nH]c2=O)cc(OCc2ccccc2Br)c1OCc1ccccc1Br` [Compound 80, 2-{3,4-bis[(2-bromobenzyl)oxy]-5-methoxybenzyl}-1,2,4-oxadiazolidine-3,5-dione] it is 89%.
With `C#CCn1cc(Cn2oc(=O)[nH]c2=O)c2cc(OCc3ccc(C(C)(C)C)cc3)ccc21` [Compound 23, 2-{[5-[(4-tert-butylbenzyl)oxy]-1-(2-propynyl)-1H-indol-3-yl]methyl}-1,2,4-oxadiazolidine-3,5-dione], the inhibition at 100 µM is 91%.
As to `C=CCn1cc(Cn2oc(=O)[nH]c2=O)c2cc(OCc3ccc(Br)cc3)ccc21` [Compound 25, 2-({1-allyl-5-[(4-bromobenzyl)oxy]-1H-indol-3-yl}methyl)-1,2,4-oxadiazolidine-3,5-dione], the inhibition at 100 µM came out at 64%.
Turning to “2-[(3′-{[4-(trifluoromethyl)benzyl]oxy}-1,1′-biphenyl-3-yl)methyl]-1,2,4-oxadiazolidine-3,5-dione [Compound 37]”, the “% Inhibition @ 100 μM” value was found to be 3%.
As for `O=c1[nH]c(=O)n(Cc2ccc(OCc3ccc(C(F)(F)F)cc3)c(OCc3ccc(C(F)(F)F)cc3)c2)o1` [Compound 86, 2-(3,4-bis{[4-(trifluoromethyl)benzyl]oxy}benzyl)-1,2,4-oxadiazolidine-3,5-dione], the inhibition at 100 µM came to 94%.
As to `O=c1[nH]c(=O)n(Cc2cccc(C#CCOc3ccc(Br)cc3)c2)o1` [Compound 66, 2-{3-[3-(4-bromophenoxy)prop-1-ynyl]benzyl}-1,2,4-oxadiazolidine-3,5-dione], the inhibition at 100 µM came to 85%.
`C#CCn1cc(Cn2oc(=O)[nH]c2=O)c2cc(OCc3cccc(Cl)c3)ccc21` [Compound 28, 2-{[5-[(3-chlorobenzyl)oxy]-1-(2-propynyl)-1H-indol-3-yl]methyl}-1,2,4-oxadiazolidine-3,5-dione]: the inhibition at 100 µM was determined as 48%.
For the compound `C#CCn1cc(Cn2oc(=O)[nH]c2=O)c2cc(OCc3ccc(C(F)(F)F)cc3)ccc21` [Compound 12, 2-[(1-(2-propynyl)-5-{[4-(trifluoromethyl)benzyl]oxy}-1H-indol-3-yl)methyl]-1,2,4-oxadiazolidine-3,5-dione], the inhibition at 100 µM stood at 100%.
In the case of “2-({4′-[(4-bromobenzyl)oxy]-1,1′-biphenyl-3-yl}methyl)-1,2,4-oxadiazolidine-3,5-dione [Compound 50]”, the “% Inhibition @ 100 μM” value is 41%.
On to `C=CCn1cc(Cn2oc(=O)[nH]c2=O)c2cc(OCc3ccc(C(C)(C)C)cc3)ccc21` [Compound 2, 2-({1-allyl-5-[(4-tert-butylbenzyl)oxy]-1H-indol-3-yl}methyl)-1,2,4-oxadiazolidine-3,5-dione], for which the inhibition at 100 µM was determined as 100%.
For the compound `O=c1[nH]c(=O)n(Cc2cccc(C#Cc3ccccc3)c2)o1` [Compound 60, 2-[3-(phenylethynyl)benzyl]-1,2,4-oxadiazolidine-3,5-dione], the inhibition at 100 µM was determined as 38%.
As to `O=c1[nH]c(=O)n(Cc2cccc(C#CCOc3cc(C(F)(F)F)cc(C(F)(F)F)c3)c2)o1` [Compound 67, 2-(3-{3-[3,5-bis(trifluoromethyl)phenoxy]prop-1-ynyl}benzyl)-1,2,4-oxadiazolidine-3,5-dione], the inhibition at 100 µM is 84%.
In the case of `O=c1[nH]c(=O)n(Cc2ccc(OCc3ccccc3Br)c(OCc3ccccc3Br)c2)o1` [Compound 90, 2-{3,4-bis[(2-bromobenzyl)oxy]benzyl}-1,2,4-oxadiazolidine-3,5-dione], the inhibition at 100 µM was determined as 94%.
For the compound `O=c1[nH]c(=O)n(Cc2ccc(-c3ccc(OCc4cccc(Br)c4)cc3)cc2)o1` [Compound 55, 2-({4′-[(3-bromobenzyl)oxy]-1,1′-biphenyl-4-yl}methyl)-1,2,4-oxadiazolidine-3,5-dione], the inhibition at 100 µM came out at 41%.
On to `C=CCn1cc(Cn2oc(=O)[nH]c2=O)c2cc(OCc3ccc(Cl)c(Cl)c3)ccc21` [Compound 34, 2-({1-allyl-5-[(3,4-dichlorobenzyl)oxy]-1H-indol-3-yl}methyl)-1,2,4-oxadiazolidine-3,5-dione], for which the inhibition at 100 µM came to 87%.
For “2-[(4′-{[4-(trifluoromethyl)benzyl]oxy}-1,1′-biphenyl-3-yl)methyl]-1,2,4-oxadiazolidine-3,5-dione [Compound 49]”, the “% Inhibition @ 100 μM” value turned out to be 28%.
For the compound `O=c1[nH]c(=O)n(Cc2cccc(OCc3ccc(C(F)(F)F)cc3)c2OCc2ccc(C(F)(F)F)cc2)o1` [Compound 81, 2-(2,3-bis{[4-(trifluoromethyl)benzyl]oxy}benzyl)-1,2,4-oxadiazolidine-3,5-dione], the inhibition at 100 µM worked out at 92%.
Same read-out and setting: the figure for `O=c1[nH]c(=O)n(Cc2ccc(C#CCOc3cc(Cl)cc(Cl)c3)cc2)o1` [Compound 62, 2-{4-[3-(3,5-dichlorophenoxy)prop-1-ynyl]benzyl}-1,2,4-oxadiazolidine-3,5-dione] is 82%; for `C#CCn1cc(Cn2oc(=O)[nH]c2=O)c2cc(OCc3ccc(Br)cc3)ccc21` [Compound 24, 2-{[5-[(4-bromobenzyl)oxy]-1-(2-propynyl)-1H-indol-3-yl]methyl}-1,2,4-oxadiazolidine-3,5-dione] it is 68%; for `O=c1[nH]c(=O)n(Cc2cn(Cc3ccccc3)c3ccc(OCc4cccc(Br)c4)cc23)o1` [Compound 8, 2-({1-benzyl-5-[(3-bromobenzyl)oxy]-1H-indol-3-yl}methyl)-1,2,4-oxadiazolidine-3,5-dione] it is 94%.
As for “2-{[5-(phenylethynyl)thien-2-yl]methyl}-1,2,4-oxadiazolidine-3,5-dione [Compound 59]”, the “% Inhibition @ 100 μM” value came to 60%.
Turning to `O=c1[nH]c(=O)n(Cc2ccc(OCc3cccc(Cl)c3)c(OCc3cccc(Cl)c3)c2)o1` [Compound 88, 2-{3,4-bis[(3-chlorobenzyl)oxy]benzyl}-1,2,4-oxadiazolidine-3,5-dione], the inhibition at 100 µM was 91%.
On to `O=c1[nH]c(=O)n(Cc2ccc(C#CCOc3cc(C(F)(F)F)cc(C(F)(F)F)c3)cc2)o1` [Compound 61, 2-(4-{3-[3,5-bis(trifluoromethyl)phenoxy]prop-1-ynyl}benzyl)-1,2,4-oxadiazolidine-3,5-dione], for which the inhibition at 100 µM stood at 87%.
Still for that read-out and setting: the figure for `O=c1[nH]c(=O)n(Cc2cccc(OCc3cccc(Cl)c3)c2OCc2cccc(Cl)c2)o1` [Compound 83, 2-{2,3-bis[(3-chlorobenzyl)oxy]benzyl}-1,2,4-oxadiazolidine-3,5-dione] is 95%; for `Cc1cccc(COc2cccc(Cn3oc(=O)[nH]c3=O)c2OCc2cccc(C)c2)c1` [Compound 82, 2-{2,3-bis[(3-methylbenzyl)oxy]benzyl}-1,2,4-oxadiazolidine-3,5-dione] it is 80%.
